Reference: patent publication US4656178A (priority 1985, dated 1987)
Counter-ions that a name gives are not always drawn. Like-named read-outs stand apart in the source and are kept apart here.

Columns and labels:
[1] = tested on: aconitine arrhythmia; test: animal or person; format: in vivo, rats; conditions: for perdition of narcotized rats prior to administration of aconitine: doses of 20 mg/kg and more; for duration of prevention of aconitine arrhythmia: doses of 5-10 mg/kg; for antiarrhythmic index (LD50/ED50): prophylactic effect, aconitine arrhythmia
Procedure: The assessment of the antiarrhythmic activity of the preparation was effected in acute and chronical experiments on rats, rabbits, cats and dogs. Various experimental models of arrhythmia were also used.
(§1) The atrioventricular arrhythmia caused by aconitine is one of the most reliable models for forecasting the efficiency of the antiarrhythmic action of the novel preparation in clinics. The experiments were conducted on both narcotized and non-narcotized animals. The preparation was administered per os, intramuscularly, intraperitoneally and intravenously 5 to 15 minutes prior to or 3-5 minutes after the administration of aconitine.
In doses of 0.2-0.5 mg/kg the preparation of this invention prevents the appearance of aconitine arrhythmia in 100% of the rats. […] Under similar experimental conditions a preliminary administration of novocainamide in the dose of 60 mg/kg intravenously produced an antiarrhythmic effect in 50% of the animals.

[2] = tested on: aconitine arrhythmia; format: in vivo, rats; conditions: for efficacy against developing aconitine arrhythmia: similar conditions, dose not stated
Procedure: as §1
The antiarrhythmic activity of the pharmaceutical composition according to the present invention upon administration thereof against the background of a developing aconitine arrhythmia (therapeutic effect) was studied on 110 narcotized rats. The preparation was intravenously administered at intervals of 3-6 minutes against the background of the originated arrhythmia.

[3] = tested on: cardiac arrhythmia induced by barium chloride; test: cardiac arrhythmia induced by barium chloride; format: in vivo, narcotized rats and intact rabbits
Procedure: The study of the antiarrhythmic activity of the preparation according to the present invention on a model of cardiac arrhythmia induced by barium chloride was carried out on 56 narcotized rats and 16 intact rabbits. The preparation of the present invention in the dose of 0.1 mg/kg injected 10 minutes prior to administration of barium prevented the development of arrhythmia in 86.6% of the animals.

[4] = tested on: arrhythmia caused by electrical irritation; test: arrhythmia caused by electrical irritation of the right auricle and apex of the left ventricle; format: in vivo, dogs and cats; conditions: for onset of antiarrhythmic effect: after intravenous administration; for bradycardia / reduction of arterial pressure: all tested doses
[5] = tested on: cardiac conductive system; format: in vivo, narcotized rats, cats, intact rabbits and dogs; conditions: for rhythm of cardiac contractions: high doses
Source text: To investigate the character of the effect produced on the functions of the cardiac conductive system by the preparation according to the present invention, the ECG changes appearing in narcotized rats, cats, intact rabbits and dogs under the action of the preparation of this invention were studied. […] The effect of the preparation is retained for a long time.

[6] = tested on: cardiac arrhythmia caused by ligation of the descending branch of the left coronary artery; test: cardiac arrhythmia caused by ligation of the descending branch of the left coronary artery (Harris method) in dogs; format: in vivo
Procedure: The effect of the preparation according to the present invention on the cardiac arrhythmia caused by ligation of the descending branch of the left coronary artery by the Harris method was studied in experiments on dogs. The preparation according to the present invention was intravenously administered on the first and second post-operative days. Preliminarily, prior to every experiment 30 to 45 minutes before the administration of the preparation the background changes of the dogs' electrocardiogram (ECG) were recorded. […] In 40% thereof a full suppression of ectopic contractions was noticed for 3-3.5 hours, whereafter arrhythmia appeared with the intensity thereof not reaching the initial background during 7 hours.

[7] = infiltration anesthesia in rabbits (intracutaneous); format: in vivo; conditions: 0.5% solution
Procedure: The local anesthetic effect of the preparation was studied on 14 intact rabbits. […] The results of the experiments on determination of the ability of the preparation to cause infiltration anesthesia have shown that 10-15 minutes after intracutaneous administration, to rabbits, of 0.01-0.05% and 0.1% solutions of the preparation anesthesia occurs which is characterized by an increased threshold of a pain irritation; the duration of the effect is 20 to 48 hours. Under the same conditions of the experiment, the local anesthetic effect of a 0.5% solution of novocaine lasts for 90 minutes on the average.

[8] = tested on: frog's heart; test: amplitude of cardiac contractions of isolated frog's heart (Schtraube)
Source text: To find out a negative inotropic effect on the heart tissue, two series of experiments have been carried out:
(1) the study of the effect of the preparation of this invention on the amplitude of the cardiac contractions of a frog's heart isolated according to Schtraube;

[9] = tested on: cardiotoxic effect of the preparation; test: sodium bicarbonate at cardiotoxic effect of the preparation in dogs

## COc1ccc(CCN(C)CCCC(C#N)(c2ccc(OC)c(OC)c2)C(C)C)cc1OC (stereo not drawn) [isoptin]
[1]; doses of 0.1-2.5 mg/kg
  prevention of aconitine arrhythmia: did not prevent the development of aconitine arrhythmia

## CCN(CC)CC(=O)Nc1c(C)cccc1C [lidocaine]
[2]; 5-10 mg/kg, followed by development of arrhythmia
  duration of arrhythmia-arresting effect: 0.5 to 3 min
[1]
  perdition of narcotized rats prior to administration of aconitine: perdition of a portion of the narcotized rats
  duration of prevention of aconitine arrhythmia: 3 to 5 min

## CCN(CC)CCNC(=O)c1ccc(N)cc1 [novocainamide, β-diethylaminoethylamide hydrochloride of p-aminobenzoic acid]
[3]; comparison with preparation and quinidine
  antiarrhythmic activity, barium chloride model: weakest antiarrhythmic activity
[4]; 10 mg/kg
  animals with antiarrhythmic effect: 40%
  duration of antiarrhythmic effect: 2 to 5 min
[4]; 20-30 mg/kg
  duration of antiarrhythmic effect: 20 to 25 min
[4]
  onset of antiarrhythmic effect: 1.0 to 1.5 min
  bradycardia: bradycardia
  reduction of arterial pressure: 20-70 mm Hg
[5]
  rhythm of cardiac contractions: sharp disturbances of the rhythm of cardiac contractions
[6]; 40-50 mg/kg
  duration of antiarrhythmic effect: 4 to 7 min
[6]; 70-80 mg/kg
  duration of antiarrhythmic effect: 30 to 60 min
[6]; dog, in vivo
  dose producing the antiarrhythmic effect: 40 to 50 mg/kg
[2]; 20 mg/kg
  rats with restored normal sinus rhythm: 3 rats out of 6
[2]; 20 mg/kg, then stable arrhythmia appeared again
  duration of restored normal sinus rhythm (average): ~10 min
[2]; 40 mg/kg
  animals with antiarrhythmic effect: 83.3%
  rats with effect only during the first 20 minutes, then stable arrhythmia reappeared: 50%
[2]; 40 mg/kg, in 50% of the rats
  duration of effect, after which stable arrhythmia reappeared: 20 min
[2]; against background of developing aconitine arrhythmia
  antiarrhythmic index (LD50/ED50): 6.9
[1]; 60 mg/kg intravenously, preliminary administration
  animals with antiarrhythmic effect: 50%
[1]
  antiarrhythmic index (LD50/ED50): 2.3

## CCN(CC)CCOC(=O)c1ccc(N)cc1 [novocaine, reference compound]
[7]
  duration of local anesthetic effect (average): ~90 min

## CC(C)NCC(O)COc1cccc2ccccc12 (stereo not drawn) [obzidan, propranolol]
[2]
  efficacy against developing aconitine arrhythmia: inefficient
[1]; 5 mg/kg
  animals in which arrhythmia was developed (after retardation): 60%
[1]; 5 mg/kg, in all test rats
  retardation of the time of appearance of aconitine arrhythmia: 5 to 8 min

## C=C[C@H]1C[N@@]2CC[C@H]1C[C@@H]2[C@@H](O)c1ccnc2ccc(OC)cc12 [quinidine]
[3]; 10 mg/kg
  antiarrhythmic effect relative to the preparation: approximately corresponded to the antiarrhythmic effect produced by the preparation according to the present invention in the dose of 0.1 mg/kg
[8]
  negative inotropic effect compared with the preparation: considerably superior to the preparation of the present invention
[8]; concentration of 10^-4 to 3.10^-4 g/ml
  effect on isolated heart: along with a sharp inhibition of the amplitude of cardiac contractions, arrhythmia
[4]; 10 mg/kg
  animals with antiarrhythmic effect: 30%
  duration of antiarrhythmic effect: 2 to 5 min
[4]; 20-30 mg/kg
  duration of antiarrhythmic effect: 20 to 25 min
[4]
  onset of antiarrhythmic effect: 2 to 3 min
  bradycardia: bradycardia
  reduction of arterial pressure: 20-70 mm Hg
[5]
  rhythm of cardiac contractions: sharp disturbances of the rhythm of cardiac contractions
[6]; 5-10 mg/kg
  effect on cardiac arrhythmia: weak effect
[2]; doses of 2.5, 5, 10, 20 mg/kg
  antiarrhythmic activity against developing aconitine arrhythmia: no antiarrhythmic activity
[1]; 20 mg/kg
  animals with antiarrhythmic effect: 50%
[1]
  antiarrhythmic index (LD50/ED50): 2.75

## O=C(O)O [sodium bicarbonate]
[5]; in vivo
  effect on the inhibition of conductivity by the preparation: diminishes the inhibiting effect of the preparation on conductivity
[9]; 4% solution, 100 to 200 ml
  effect on ECG changes caused by toxic doses of the preparation: equalizes distinctly pronounced electrocardiographic changes
[9]; infusion of sodium bicarbonate
  effect on reduced arterial pressure in overdosing of the preparation: levelled
[9]; intravenous infusion of 4% solution, 100 to 200 ml, after beginning of infusion
  time to equalization of ECG changes caused by toxic doses of the preparation: 15 to 30 min

## CCN(CC)CC(=O)Nc1c(C)cc(C)cc1C [trimecaine]
[2]
  efficacy against developing aconitine arrhythmia: inefficient
[1]
  perdition of narcotized rats prior to administration of aconitine: perdition of a portion of the narcotized rats
  duration of prevention of aconitine arrhythmia: 3 to 5 min
